Assay results: patent publication US8961927B2, “Agents for magnetic imaging method” (Bracco Imaging S.p.A., priority 2002, dated 2015)

Legend:
Assay type in all cases: cell-based
[1] = tested on: panel of cancer cell lines; experiment: Uptake in a panel of cancer cell lines compared with healthy hepatocytes, compound of Example 3; details: substrate 5.1 mM; after 2 hours; FIG. 3
Protocol: The substrate concentration was 5.1 mM and the uptake was measured after 2 hours from the administration of the test compound.

[2] = tested on: human hepatoma cells HepG2; experiment: Differential uptake in hepatocytes and hepatoma cell lines HepG2, EBSS without glucose, compound of Example 3; details: substrate 5.1 mM, time course, FIG. 2
Protocol: The cells were cultured as in Example 12 above. The uptake experiments were performed in 5 ml EBSS without glucose to avoid competition between this compound and the test compound.
The substrate concentration was 5.1 mM and a time course analysis was done.

human hepatoma cells HTC = experiment: Differential uptake in rat hepatocytes and human hepatoma cells HTC, time course; details: substrate 1.3 mM, 37° C. in EBSS
Protocol: This experiment has been carried out as follows:
Rat hepatocytes were cultured in M199 medium supplemented with 2 mg/ml bovine serum albumin (BSA), 3.6 mg/ml Hepes, 100 U/ml penicillin, 100 U/μg streptomycin, and 10 nmol/insulin; HTC cells were cultured in RPMI 1640 medium supplemented with 10% foetal bovine serum, 100 U/ml penicillin and 100 U/μg streptomycin.
The uptake experiments were performed in 5 ml EBSS, Earl's Balanced Salt Solution, (CaCl2 0.266 g/l; KCl 0.4 g/l; NaCl 6.8 g/l; glucose 1 g/l; MgSO4 0.204 g/l; NaH2PO4 0.144 g/l; NaHCO3 2.2 g/l).
[…] The substrate concentration was for both cell lines 1.3 mM.

| Substance | uptake of Gd in cancer cell lines compared with healthy hepatocytes [1] | uptake in human hepatoma cells HepG2 compared with hepatocyte [2] | uptake by the human hepatoma cells HTC relative to the one in hepatocytes (human hepatoma cells HTC; after 0.5 hour) | uptake by the human hepatoma cells HTC relative to the one in hepatocytes (human hepatoma cells HTC; after six hours) | uptake by the human hepatoma cells HTC relative to the one in hepatocytes (human hepatoma cells HTC; at 2 hours) |
| --- | --- | --- | --- | --- | --- |
| Gadolinium Complex of 3,6,9-triaza-3,6,9-tricarboxymethylundecanoic acid bis-glucopyranosylamide [Example 3] | increased in all the cancer cell lines | higher uptake |  |  |  |
| Gadolinium Complex of [4-(1,6,10-triazaundecan)-phenyl-aminocarbonylmethyl]-1,4,7,10-tetraazacyclododecan-4,7,10-triacetic acid [Example 11] |  |  | ⅓ | more than 4 times | more than 3 times |
